Patent US5314891A, “Benzenesulphonamide derivatives” (Imperial Chemical Industries PLC, priority 1991, dated 1994)
pIC50: −log10 of the molar value.

Columns and labels:
[1] = molecular target: T1, 5-LO (Rattus norvegicus, UniProt P12527); test: Test c) in vivo zymosan-induced LTB4 liberation in rat air pouch; conditions: male rats, oral
T1 construct: liberation of LTB4 induced by zymosan within an air pouch generated within the subcutaneous tissue of the back of male rats; from tissue
T1 sequence (P12527 1-673): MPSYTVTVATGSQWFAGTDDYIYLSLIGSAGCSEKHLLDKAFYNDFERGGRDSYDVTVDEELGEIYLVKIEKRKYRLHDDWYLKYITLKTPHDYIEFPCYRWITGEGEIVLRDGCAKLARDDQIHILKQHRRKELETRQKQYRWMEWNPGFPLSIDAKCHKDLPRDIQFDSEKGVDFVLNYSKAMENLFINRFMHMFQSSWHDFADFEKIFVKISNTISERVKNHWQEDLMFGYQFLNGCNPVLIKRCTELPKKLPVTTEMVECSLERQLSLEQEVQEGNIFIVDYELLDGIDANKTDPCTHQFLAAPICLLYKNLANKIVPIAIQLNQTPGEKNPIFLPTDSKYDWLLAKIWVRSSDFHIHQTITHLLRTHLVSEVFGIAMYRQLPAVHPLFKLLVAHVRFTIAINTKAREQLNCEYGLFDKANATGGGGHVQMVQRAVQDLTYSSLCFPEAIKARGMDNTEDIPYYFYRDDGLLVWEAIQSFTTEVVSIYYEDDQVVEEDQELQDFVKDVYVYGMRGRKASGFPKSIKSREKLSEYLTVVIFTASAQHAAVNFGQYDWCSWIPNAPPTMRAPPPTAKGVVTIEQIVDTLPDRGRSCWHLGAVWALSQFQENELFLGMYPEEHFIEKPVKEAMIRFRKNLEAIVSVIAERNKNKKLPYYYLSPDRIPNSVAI
Procedure: (§1) As stated previously, the novel compounds of the formula I are inhibitors of the enzyme 5-LO.
c) An in vivo system involving measuring the effects of a test compound administered orally against the liberation of LTB4 induced by zymosan within an air pouch generated within the subcutaneous tissue of the back of male rats. The rats are anaesthetised and air pouches are formed by the injection of sterile air (20 ml). A further injection of air (10 ml) is similarly given after 3 days. At 6 days after the initial air injection the test compound is administered (usually orally as the suspension produced when a solution of the test compound in dimethylsulphoxide is added to hydroxypropylmethylcellulose), followed by the intrapouch injection of zymosan (1 ml of a 1% suspension in physiological saline). After 3 hours the rats are killed, the air pouches are lavaged with physiological saline, and the specific radioimmunoassay described above is used to assay LTB4 in the washings. This test provides an indication of inhibitory effects against 5-LO in an inflammatory milieu.

[2] = molecular target: T2, 5-LO (Homo sapiens, UniProt P09917); test: Test a) in vitro human blood assay, A23187 challenge, LTB4 radioimmunoassay; format: cell-based; conditions: heparinised human blood
T2 construct: incubating a test compound with heparinised human blood, prior to challenge with the calcium ionphore A23187; endogenous in cells; host or cells: blood cells in heparinised human blood
T2 sequence (P09917 1-674): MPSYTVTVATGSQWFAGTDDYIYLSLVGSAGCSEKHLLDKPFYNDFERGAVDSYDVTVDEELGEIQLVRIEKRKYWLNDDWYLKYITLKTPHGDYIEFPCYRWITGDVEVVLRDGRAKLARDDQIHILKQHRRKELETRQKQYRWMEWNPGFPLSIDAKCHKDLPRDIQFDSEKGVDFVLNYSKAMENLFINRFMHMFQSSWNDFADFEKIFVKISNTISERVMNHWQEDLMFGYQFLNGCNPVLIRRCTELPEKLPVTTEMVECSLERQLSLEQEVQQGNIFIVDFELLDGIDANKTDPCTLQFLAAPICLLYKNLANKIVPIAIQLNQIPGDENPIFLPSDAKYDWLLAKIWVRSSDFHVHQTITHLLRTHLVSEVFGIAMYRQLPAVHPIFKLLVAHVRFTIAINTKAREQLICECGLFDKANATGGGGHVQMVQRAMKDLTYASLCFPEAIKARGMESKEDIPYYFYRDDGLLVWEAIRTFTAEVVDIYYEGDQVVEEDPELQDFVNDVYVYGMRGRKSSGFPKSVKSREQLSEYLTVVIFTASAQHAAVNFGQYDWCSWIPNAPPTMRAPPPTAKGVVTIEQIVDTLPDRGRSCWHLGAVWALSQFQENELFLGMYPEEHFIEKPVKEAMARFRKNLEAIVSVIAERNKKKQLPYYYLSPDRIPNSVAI
Procedure: as §1
a) An in vitro assay system involving incubating a test compound with heparinised human blood, prior to challenge with the calcium ionphore A23187 and then indirectly measuring the inhibitory effects on 5-LO by assaying the amount of LTB4 using specific radioimmunoassays described by Carey and Forder (Prostaglandins, Leukotrienes Med., 1986, 22, 57; Prostaglandins, 1984, 28, 666; Brit. J. Pharmacol., 1985, 84, 34P) which involve the use of a protein-LTB4 conjugate produced using the procedure of Young et alia (Prostaglandins, 1983, 26(4), 605-613). The effects of a test compound on the enzyme cyclooxygenase (which is involved in the alternative metabolic pathway for arachidonic acid and gives rise to prostaglandins, thromboxanes and related metabolites) may be measured at the same time using the specific radioimmunoassay for thromboxane B2 (TxB2) described by Carey and Forder (see above). This test provides an indication of the effects of a test compound against 5-LO and also cyclooxygenase in the presence of blood cells and proteins. It permits the selectivity of the inhibitory effect on 5-LO or cyclooxygenase to be assessed.

Compound: COC1(c2cccc(Sc3ccc(S(=O)(=O)Nc4ccc(Cl)cn4)cc3)c2)CCOCC1 [Example 4, N-(5-chloropyrid-2-yl)-4[3-(4-methoxytetrahydropyran-4-yl)phenylthio]benzenesulphonamide]
- ED50 [1]: 1.5 mg/kg
- pIC50 [2]: 5.38

Compound: COC1(c2cccc(Sc3ccc(S(=O)(=O)Nc4nccs4)cc3)c2)CCOCC1 [Example 6, 4-[3-(4-methoxytetrahydropyran-4-yl)phenylthio]-N-(2-thiazolyl)benzenesulphonamide]
- ED50 [1]: 1.5 mg/kg
- pIC50 [2]: 6.00
